Test results: patent publication US20090053302A1, “CANCER TREATMENTS” (priority 2006, published 2009)

Assays:
[1] = Phase I-II study of Lipoplatin combined with gemcitabine: toxicity, DLT, MTD; format: in vivo, human; details: combined with Lipoplatin 100 mg/m2, every two weeks
Experimental: Patients and Methods: The gemcitabine dose was kept standard at 1000 mg/m2 and the lipoplatin dose was escalated from 25 mg/m2 to 125 mg/m2. The treatment was administered to advanced pretreated pancreatic cancer patients who were refractory to previous chemotherapy which included gemcitabine.
Gemcitabine was given as a 60 min i.v. infusion in 500 ml normal saline on days 1 and 15 at a dose of 1000 mg/m2 and cycles were repeated every 4 weeks (28 days). The infusions on days 1 and 15 were considered to be 1 cycle. […] Prophylactic administration of recombinant human granulocyte colony-stimulating factor (rhG-CSF) was not allowed. In cases of grade 3 neutropenia, these patients would receive subsequent infusions of pegfilgrastim 6 mg, on the 6th or 7th day and treatment would be postponed for one week. Treatment was administered for at least three cycles or until disease progression. The study was a phase I/II cohort, dose escalation trial of Lipoplatin® and gemcitabine. Its aims were to determine the dose limiting toxicity (DLT) of the combination and to define the maximum tolerated dose (MTD) as a recommended dose for phase II and to collect preliminary data on the efficacy of the drug in pretreated patients with pancreatic cancer. […]

[2] = Total platinum in rat plasma after i.p. injection (pharmacokinetics, atomic absorption); details: female, Wistar, in vivo, ip, 15 mg/kg
Experimental: For pharmacokinetic studies 20 Wistar female rats, 2-3 months of age were used of an average body weight of 150 g. […] Two animals per time point were used. […] Blood was collected in heparinized Eppendorf tubes and was centrifuged. Total platinum levels in plasma was determined using furnace Atomic Absorption (AA700 Perkin Elmer).
At various time points postinjection blood was drawn, plasma was isolated and total platinum levels were measured for pharmacokinetic studies.
This was calculated by linear regression analysis of the logarithmic plasma concentration-time curve by the formula Kel=[Ln(Cp1)−Ln(Cp2)]/(t2−t1) where t1 and t2 are the starting and ending time points of measurements and Cp1 and Cp2 the starting and ending concentrations of total platinum in plasma for t1 and t2, respectively.
This was calculated by the formula: t½=0.693 (1/Kel). 1/Kel is the mean residence time (MRT), the statistical moment analogy to half-life t½ (Gibaldi et al, 1982).

[3] = Toxicity of i.v. doses in mice
[4] = not given; remark: listed apart in the source
[5] = tested on: human breast cancers in mice; test: Human breast cancer xenografts in mice, intravenous injections; details: 6 intravenous injections with 4 days intervals; Lipoxal 16 mg/Kg, oxaliplatin at its MTD
[6] = female, Wistar, rat, in vivo, ip, 15 mg/kg
[7] = rats i.p., 15 mg/Kg (estimation) (Lipoplatin 30, cisplatin 5 mg/Kg)
[8] = rats i.p., Lipoplatin 30, cisplatin 5 mg/Kg

## Nc1ccn([C@@H]2O[C@H](CO)[C@@H](O)C2(F)F)c(=O)n1 [gemcitabine]
[1]
  MTD of gemcitabine in the combination: 1000 mg/m2

## O=C1[O][Pt]2([NH]C3CCCCC3[NH2+]2)[O]C1=O [oxaliplatin, cis-[(1R,2 R)-1,2-cyclohexanediamine-N,N][oxalato(2-)-O,O] platinum]
15 mg/Kg i.p.
  final body weight at 7 days (150 g before study): 109 g
15 mg/kg i.p.
  weight loss of total body weight during 7 days: over 40 gr
15 mg/kg i.p., 7.8 or 7 days
  Weight of total animal organ: Heart: 0.523 g
  Weight of total animal organ: Kidney: 0.475 g
  Weight of total animal organ: Lung: 0.934 g
  Weight of total animal organ: Spleen: 0.188 g
30 mg/Kg i.p., 7 days post-treatment
  weight loss: 33%
30 mg/Kg i.p., day 7
  average weight after 7 days (from 150 g): 100 g
Rats i.p.
  hepatic toxicity / nephrotoxicity: absence of nephrotoxicity
[2]
  time post-injection at which total platinum in plasma reaches zero: ~100 h
[3]; 5 mg/Kg
  outcome of mice injected with 5 mg/Kg: died of toxicity
[3]; mouse, in vivo
  MTD: 4 mg/kg
[4]; [6]
  Kel, kidney: 0.002 h⁻¹
  time at which the early spleen maximum is reached: 15 to 20 min
[4]; rat, in vivo, ip, 15 mg/kg
  Cl, kidney: 0.01 h⁻¹
[5]
  effect on human breast cancers in mice: only cause shrinkage, not disappearance

## N.N.[Cl][Pt][Cl] [cisplatin, cis-PtCl2(NH3)2]
Rats i.p.
  maximum tolerated dose: 5 mg/kg
[4]; rats i.p. 5 mg/Kg
  total platinum in liver from 24 to 150 h: 1
[4]; rats i.p., 15 mg/Kg (cisplatin 5 mg/Kg)
  time at which the liver level is attained: 20 min
[4]; [7]
  total platinum, Heart, 5 h: 0.2 mg Pt/g tissue
  total platinum, Kidney, 5 h: 6.8 mg Pt/g tissue
  total platinum, Liver, 5 h: 2.4 mg Pt/g tissue
  total platinum, Lung, 5 h: 0.7 mg Pt/g tissue
  total platinum, Spleen, 5 h: 1.2 mg Pt/g tissue
[4]; [8]
  total platinum, Brain, 5-7 days: 0 mg Pt/g tissue
  total platinum, Brain, 5 h: 0.1 mg Pt/g tissue
  total platinum, Brain, maximum (7-20 min): 0.3 mg Pt/g tissue
